Data reported in PMC13198257, “An aerosolized dual-action autotaxin inhibitor-PPARγ agonist for the treatment of pulmonary fibrosis” (Cell Reports Medicine, 2026).

Test system: lung gene expression
Assay: RNA sequencing of lung tissue (BLM/EL244 vs BLM)
Format: in vivo, mouse
Protocol: RNA quality was assessed using an Agilent TapeStation 4150 with the High Sensitivity […] ScreenTape (Agilent), according to the manufacturer’s protocols. For library preparation, the QuantSeq 3’mRNA-Seq Library Prep Kit (Lexogen) was used according to manufacturer’s instructions. Briefly, 500 ng of RNA from each sample was used for first-strand synthesis, followed by RNA template removal, and second-strand synthesis initiated by random primers. In-line barcodes were introduced at this step, and this was followed by magnetic bead-based purification. The resulting libraries were amplified for 15 cycles and re-purified, with quantity and quality assessed on a Qubit 4 Fluorometer with the Invitrogen Qubit dsDNA HS Assay and an Agilent Tapestation 4150 with the High Sensitivity D1000 assay kit, respectively. The quantified libraries were pooled equimolarly; 50ng of total library mix was used for Adapter Conversion PCR Amplification using the Universal Library Conversion Kit (App-A), Version: V1.0 (MGI Tech Co., Ltd.), according to the manufacturer’s instructions.
The quantity and quality of the purified adapter conversion PCR (AC-PCR) product were evaluated on a Qubit 4 Fluorometer with the Invitrogen Qubit dsDNA HS Assay and on an Agilent Tapestation 4150 with the High Sensitivity D1000 assay kit, respectively. This was followed by DNA denaturation, Single-Strand Circularisation, Enzymatic Digestion, Enzymatic Digestion Product Cleanup and Quality Control steps on 1 pmol of AC-PCR product, according to the Universal Library Conversion Kit (App-A) User Manual (Version: A3).
Finally, 60 fmol of ssCirDNA were used for DNB preparation and sequencing on a DNBSEQ-G400 platform at the BSRC Alexander Fleming Genomics Facility, using a G400 App-A FCS SE100 High-throughput Sequencing Set (MGI Tech Co., Ltd.), according to the manufacturer’s instructions.
Alignment of the FASTQ files was performed against the mouse genome build mm10 using a custom Bash script.[143] Read counting on the 3′ UTRs and differential expression analysis were conducted using the metaseqR2 bioconductor package.[144] Genes corresponding to the following biotypes were excluded: polymorphic_pseudogene, processed_transcript, pseudogene, IG_V_pseudogene, misc_RNA, IG_C_gene, IG_J_gene, IG_D_gene, IG_LV_gene, TR_V_gene, TR_V_pseudogene, TEC, and processed_pseudogene. Gene counts were normalized with DESEQ[145] through metaseqR2. Genes with more than 10 counts in at least 50% of the samples were kept for further processing. For differential expression analysis, the PANDORA algorithm[146] was used to estimate a meta p-value integrating the results from the DESEQ, DESEQ2,[147] edgeR,[148] limma,[149] NBPSeq,[150] and NOISeq[151] algorithms. All additional parameters were set to default values.
Pathway enrichment analysis was performed for the Gene Ontology Biological process (BP) and Molecular Function (MF) terms through GeneCodis 4.[152] The volcano plots, scatterplots, Venn diagrams, and dot plots were generated using the ggplot2 Bioconductor package.

## O=C1NC(=O)C(Cc2ccc(OCCC3CCN(C(=O)OCc4cc(Cl)cc(Cl)c4)CC3)cc2)S1 (stereo not drawn) [EL244, 3,5-dichlorobenzyl 4-(2-(4-((2,4-dioxothiazolidin-5-yl)methyl)phenoxy)ethyl)piperidine-1-carboxylate]
DEG Ccl9
  log2 nFC BLM/EL244 vs BLM: -1.37
DEG Ccnb1
  log2 nFC BLM/EL244 vs BLM: -2.41
DEG Cd300lg, nFC: normalised fold change
  Cd300lg log2 nFC BLM/EL244 vs BLM: 1.18
DEG Cdc20
  log2 nFC BLM/EL244 vs BLM: -1.58
DEG Cdca2
  log2 nFC BLM/EL244 vs BLM: -1.33
DEG Cenpa
  log2 nFC BLM/EL244 vs BLM: -1.31
DEG Cenpk
  log2 nFC BLM/EL244 vs BLM: -1.51
DEG Cenpw
  log2 nFC BLM/EL244 vs BLM: -1.33
DEG Cep85l, nFC: normalised fold change
  Cep85l log2 nFC BLM/EL244 vs BLM: 1.02
DEG Cercam
  log2 nFC BLM/EL244 vs BLM: -1.37
DEG Cfap100, nFC: normalised fold change
  Cfap100 log2 nFC BLM/EL244 vs BLM: 0.89
DEG Cfap206, nFC: normalised fold change
  Cfap206 log2 nFC BLM/EL244 vs BLM: 0.77
DEG Cftr, nFC: normalised fold change
  Cftr log2 nFC BLM/EL244 vs BLM: 0.96
DEG Chia1, nFC: normalised fold change
  Chia1 log2 nFC BLM/EL244 vs BLM: 1.16
DEG Chrdl1, nFC: normalised fold change
  Chrdl1 log2 nFC BLM/EL244 vs BLM: 1.39
DEG Chsy3
  log2 nFC BLM/EL244 vs BLM: -1.56
DEG Cidec, nFC: normalised fold change
  Cidec log2 nFC BLM/EL244 vs BLM: 1.57
DEG Cilp
  log2 nFC BLM/EL244 vs BLM: -1.39
DEG Ckap2
  log2 nFC BLM/EL244 vs BLM: -2.44
DEG Ckm, nFC: normalised fold change
  Ckm log2 nFC BLM/EL244 vs BLM: 2.32
DEG Ckmt2, nFC: normalised fold change
  Ckmt2 log2 nFC BLM/EL244 vs BLM: 2.73
DEG Cks1b
  log2 nFC BLM/EL244 vs BLM: -1.54
DEG Cldn5, nFC: normalised fold change
  Cldn5 log2 nFC BLM/EL244 vs BLM: 0.97
DEG Clec4a2
  log2 nFC BLM/EL244 vs BLM: -1.26
DEG Clec4n
  log2 nFC BLM/EL244 vs BLM: -1.39
DEG Col1a2
  log2 nFC BLM/EL244 vs BLM: -1.41
DEG Col3a1
  log2 nFC BLM/EL244 vs BLM: -1.54
DEG Col5a1
  log2 nFC BLM/EL244 vs BLM: -1.52
DEG Col5a2
  log2 nFC BLM/EL244 vs BLM: -1.48
DEG Col5a3
  log2 nFC BLM/EL244 vs BLM: -1.53
DEG Colq, nFC: normalised fold change
  Colq log2 nFC BLM/EL244 vs BLM: 1.81
DEG Cox6a2, nFC: normalised fold change
  Cox6a2 log2 nFC BLM/EL244 vs BLM: 1.42
DEG Crebl2, nFC: normalised fold change
  Crebl2 log2 nFC BLM/EL244 vs BLM: 0.79
DEG Crispld2, nFC: normalised fold change
  Crispld2 log2 nFC BLM/EL244 vs BLM: 0.80
DEG Cry2, nFC: normalised fold change
  Cry2 log2 nFC BLM/EL244 vs BLM: 0.70
DEG Csf3r, nFC: normalised fold change
  Csf3r log2 nFC BLM/EL244 vs BLM: 1.69
DEG Csrnp1, nFC: normalised fold change
  Csrnp1 log2 nFC BLM/EL244 vs BLM: 0.83
DEG Csrp3, nFC: normalised fold change
  Csrp3 log2 nFC BLM/EL244 vs BLM: 2.07
DEG Cst8, nFC: normalised fold change
  Cst8 log2 nFC BLM/EL244 vs BLM: 1.41
DEG Ctla2a, nFC: normalised fold change
  Ctla2a log2 nFC BLM/EL244 vs BLM: 0.72
DEG Ctla2b, nFC: normalised fold change
  Ctla2b log2 nFC BLM/EL244 vs BLM: 0.96
DEG Cxcl13
  log2 nFC BLM/EL244 vs BLM: -1.42
DEG Cxcr2, nFC: normalised fold change
  Cxcr2 log2 nFC BLM/EL244 vs BLM: 1.19
DEG Cyp2a5, nFC: normalised fold change
  Cyp2a5 log2 nFC BLM/EL244 vs BLM: 1.66
DEG Cyp2d22, nFC: normalised fold change
  Cyp2d22 log2 nFC BLM/EL244 vs BLM: 0.97
DEG Cyp2f2, nFC: normalised fold change
  Cyp2f2 log2 nFC BLM/EL244 vs BLM: 0.79
DEG Cyp4b1, nFC: normalised fold change
  Cyp4b1 log2 nFC BLM/EL244 vs BLM: 1.18
DEG Cyp7b1
  log2 nFC BLM/EL244 vs BLM: -1.41
DEG Cytl1, nFC: normalised fold change
  Cytl1 log2 nFC BLM/EL244 vs BLM: 1.67
DEG D630024D03Rik, nFC: normalised fold change
  D630024D03Rik log2 nFC BLM/EL244 vs BLM: 1.60
DEG Dgkh, nFC: normalised fold change
  Dgkh log2 nFC BLM/EL244 vs BLM: 0.84
DEG Dnali1, nFC: normalised fold change
  Dnali1 log2 nFC BLM/EL244 vs BLM: 0.73
DEG Dok2
  log2 nFC BLM/EL244 vs BLM: -1.37
DEG Dpep1, nFC: normalised fold change
  Dpep1 log2 nFC BLM/EL244 vs BLM: 0.71
DEG Dpysl5, nFC: normalised fold change
  Dpysl5 log2 nFC BLM/EL244 vs BLM: 1.90
DEG Dusp1, nFC: normalised fold change
  Dusp1 log2 nFC BLM/EL244 vs BLM: 0.86
DEG E2f8
  log2 nFC BLM/EL244 vs BLM: -1.57
